Data set [1] concerns NCC (lysis of IM-9 target cells). As to conditions: for Percentage of control (NCC cytotoxic activity): 120 minutes; for effect of removal of inhibitor on NCC activation (words): 90 minutes treatment, washed, E:T 40:1. On the procedure: FIG. 4. Individual and combined effects of phosphatase inhibitors on NCC cytotoxicity, NCC (7×10^5 cells) were incubated with either media (.diamond.), vanadate (Δ) (5 mM). NaF (.smallcircle.) (20 mM), or both vanadate and NaF (.quadrature.) for the indicated time periods before addition to labeled IM-9 target cells.
FIG. 5. Effects of removal of Na3 VO4 on NCC activation. NCC were harvested, incubated for three hours, washed, counted and added to duplicate tubes containing either media alone or media containing 2.5, 5 and 10 mM vanadate. Following a 90 minutes incubation time, the cells were either washed and resuspended in media (closed circles) or added directly (open circles) to wells containing ^51 chromium labeled IM-9 target cells (E:T ratio 40:1).
FIG. 6. Effects of removal of NaF on NCC activation. NCC were harvested, incubated for three hours in media, washed, counted and added to duplicate tubes containing media alone or in the presence of 5, 10 and 20 mM NaF. Following a 90 minutes treatment time, NCC were either washed (closed circles) or added directly (open circles) to wells containing labeled IM-9 target cells (E:t ratio 40:1).
FIG. 7. Effects of Na3 VO4 on NCC with different levels of cytotoxicity. NCC were harvested from anterior kidneys of fish from three different sources. The cells were incubated in media for three hours, washed, counted and added to test tubes containing either media alone or media with 2.5, 5 and 10 mM vanadate. Following a two hours incubation time, the effectors were added to wells containing labeled IM-9 cells at a 40:1 E:T ratio.
FIG. 8. Effects of NaF on NCC with different levels of cytotoxicity. NCC were harvested from anterior kidneys of fish from three different sources. The cells were incubated in media for three hours, washed, counted and added to media or media with 5, 10 and 20 mM NaF. Following a two-hour incubation, NCC were added to wells containing ^51 chromium labeled IM-9 target cells for a final E:T ratio of 40:1.
(§1) A ^51 Cr release assay was used to determine cytotoxicity. Target cells at 1-2×10^6 cells/ml were labeled with 100 μCi of sodium chromate (Amersham, Arlington Heights, Ill.). NCC effector cells were treated as previously described [Evans et al. (1988) supra], centrifuged (500 g), and resuspended in media and added at different E:T ratios to the labeled target cells in round-bottomed 96-well microtiter plates. This mixture was incubated (25° C.) for 4-6 hours and 100 μl of each supernatant was removed to determine radioactivity (Beckman Biogamma II Counter; Beckman Instruments, Irvine, Calif.). The results are expressed as either percentage specific release (SR)=[(test release--spontaneous release)/(total release--spontaneous release)]×100; percent inhibition=[(percentage control SR--percentage test SR)/percentage control SR]×100; and percentage increase=(percentage test SR--percentage control SR)/percentage control SR.
NCC were obtained as previously described [Graves et al. (1984) supra]; Evans et al. (1984) supra]. […] NCC were then washed and resuspended at 20×10^6 cells/ml, and 35 μl aliquots were added to test tubes containing 315 μl media only (media control) or media containing the indicated treatments. After 2 hr incubation, the cells were mixed with ^51 Cr-labeled IM-9 target cells and incubated for 4-6 hours ([…]). Supernatants were harvested and cytotoxicity levels were calculated as previously described.
Membrane phosphorylation is maintained through a delicate equilibrium between cellular kinase and phosphatase activities.
In further studies, NCC were treated with different concentrations of protein phosphatase inhibitors for two hours and labeled IM-9 target cells were added for a four-hour microcytotoxicity assay (Table 8).

For data set [2], the system named is human prostate gland phosphotyrosyl protein phosphatase. As to conditions: cited from earlier work.
For another data set, the system named is calcineurin. As to conditions: cited from earlier work.
The subject of a further data set is IM-9 target cells. The procedure:
In further studies, NCC were treated with different concentrations of protein phosphatase inhibitors for two hours and labeled IM-9 target cells were added for a four-hour microcytotoxicity assay (Table 8). […] To determine if the activating effects of the protein phosphatase inhibitors were reversible, NCC were treated for 90 minutes with NaF and vanadate and then the inhibitors were removed prior to addition of the labeled target cells.

For the next data set, the system named is NCC. As to conditions: relatively high concentrations.
In data set [3] the test system is NCC from stressed fish (lysis of IM-9 target cells). Conditions: for Percent Specific Release (stressed fish): 100:1, control 0.9. On the procedure: as §1
A common observation in fish exposed to stress, e.g., toxicants, drastic temperature changes, handling, etc., is the temporary loss of NCC activity.

For the next data set, the system named is CRC cells. The data set can be described thus: Lytic activity of CRC cells (rat leukemic NK cells). Type of data set: cell-based, rat (F344). The text has this:
The present invention relates to the relevance of protein phosphatase inhibitors to the protection of other species and other types of natural killer cells. For example, the CRC cells (tissue cultured cells obtained from peripheral blood of leukemic F344 rats) are perhaps more interesting (e.g., another model to study the effects of vanadate on altering immunosuppressed NK function) because these are in vitro maintained rat leukemic NK cells which have spontaneously lost cytotoxicity against YAC-1 target cells. […] It is possible that the discovery of this activity of protein phosphatase inhibitors may have widespread importance for studies of mechanisms of signaling in all vertebrates. Additionally, these inhibitors may have clinical importance in circumstances of immunosuppression, immunodeficiency and other conditions of altered immune activity.

The next data set concerns protein phosphatase. Conditions: cited from earlier work.
In data set [4] the test system is phosphotidylinositol phosphate phosphatase. As to conditions: cited from earlier work.

SMILES strings stand for the structures. Read-outs that look alike come from different tables or passages of the source.

For the molecule `[F-].[Na+]` [Sodium fluoride, sodium fluoride], in data set [1], the “cytotoxicity in presence of inhibitor, normal NCC” value is on record as “significant increased cytotoxicity”. Besides, in data set [1], the “effect on NCC cytotoxicity” value is recorded as “activated the cytotoxicity of NCC”. In addition, the “Percentage of control (NCC cytotoxic activity)” value in data set [1] (5 mM, E:T 25:1) came to 210.3%; in data set [1] (5 mM, E:T 50:1), 136.9%; in [1] (5 mM, E:T 100:1), 123.2%; in data set [1] (10 mM, E:T 25:1), 333.3%; in data set [1] (10 mM, E:T 50:1) it was 183.9%; in data set [1] (10 mM, E:T 100:1) it was 153.7%. In addition, the “Percentage of control (NCC cytotoxic activity)” value in [1] (20 mM, E:T 25:1) is 635.3%; in data set [1] (20 mM, E:T 100:1) it was 157.3%. In addition, the “Percent Specific Release” value in data set [1] (5 mM, E:T 10, media 39) was determined as 48%; in [1] (5 mM, E:T 25, media 4), 9%; in data set [1] (5 mM, E:T 50, media 21) it was 29%; in data set [1] (10 mM, E:T 10, media 39), 60%; in [1] (10 mM, E:T 25, media 4) it was 14%; in [1] (10 mM, E:T 50, media 21), 39%. In addition, the “Percent Specific Release” value in [1] (20 mM, E:T 10, media 39) turned out to be 61%; in data set [1] (20 mM, E:T 25, media 4), 28%; in data set [1] (20 mM, E:T 50, media 21), 49%. The “effect of removal of inhibitor on NCC activation (words)” value is “almost completely obliterated activation” in data set [1] (listed as NaF), “almost completely obliterated NCC activation” in [1] (listed as fluoride) and “lost” in data set [1] (listed as sodium fluoride). In [2], the “human prostate gland phosphotyrosyl protein phosphatase” value is “fluoride, but not vanadate inhibited human prostate gland phosphotyrosyl protein phosphatase”. Besides, in the data set on calcineurin, the “calcineurin-mediated dephosphorylation” value was “fluoride, but not vanadate inhibited”. In addition, the “toxicity to labeled IM-9 targets” value in the data set with IM-9 target cells (20 mM) is given as “not toxic”. Moreover, in the data set on NCC, the “toxicity to NCC” value is “not toxic to NCC”. Also, the results for the “Percent Specific Release (stressed fish)” value in [3] (NaF 5 mM), in data set [3] (NaF 10 mM) and in [3] (NaF 20 mM) were 1.4%, 4.4% and 22.0%, respectively. The “increase in the lytic activity of CRC cells” value in the data set with CRC cells is 3 -fold. Moreover, the “protein phosphatase activity” value with protein phosphatase was “vanadate but not fluoride inhibited protein phosphatase activity”.

Turning to `[Cl-].[Li+]` [Lithium chloride, lithium chloride], in [4], the “phosphotidylinositol phosphate phosphatase activity” value is reported as “specifically inhibited”. The “toxicity to labeled IM-9 targets” value in the data set on IM-9 target cells was “not toxic”. Also, in [3], the “effect on cytotoxicity, stressed fish” value was “no effects on cytotoxicity”.

These data come from patent US5593678A, “Protection of teleost fish” (University of Georgia Research Foundation, priority 1994, dated 1997).
